Like-named read-outs stand apart in the source and are kept apart here.

The values that follow come from patent publication USRE46604E1, “Treatment of circadian rhythm disorders” (VANDA PHARMACEUTICALS, INC., priority 2012, dated 2017).

The target of one data set is MT1R (Homo sapiens, UniProt P48039). Briefly: Melatonin receptor MT1R affinity. In kind it is binding.
The next data set has as its target T1, MT2R (Homo sapiens, UniProt P49286).
T1 sequence (P49286 1-362): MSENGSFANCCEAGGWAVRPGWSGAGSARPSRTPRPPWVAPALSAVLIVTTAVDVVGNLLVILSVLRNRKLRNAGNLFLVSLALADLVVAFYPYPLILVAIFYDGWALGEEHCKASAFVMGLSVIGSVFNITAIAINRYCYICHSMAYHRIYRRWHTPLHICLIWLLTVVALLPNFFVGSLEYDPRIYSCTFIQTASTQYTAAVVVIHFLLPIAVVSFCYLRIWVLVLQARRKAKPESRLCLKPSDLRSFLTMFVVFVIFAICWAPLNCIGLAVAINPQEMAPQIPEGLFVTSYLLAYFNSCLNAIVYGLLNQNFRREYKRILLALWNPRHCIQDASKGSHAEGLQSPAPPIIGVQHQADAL
Briefly: Melatonin receptor MT2R affinity. In kind it is binding.

The test system of a further data set is Non-24 patients. Briefly: Entrainment by baseline peak aMT6s and beta blocker status (clinical studies). In kind it is in vivo, humans. On the procedure: A useful protocol for estimating tau in candidates for clinical testing for treatment of Non-24, which method can be applied to diagnosis of Non-24 in a given patient, is as follows: • Each subject will undergo four 48-hour urine collection sessions at nominal days 7, 14, 21, and 28. During each session, the start of the session and the time of each void will be recorded. Urine collected over periods of 4 hours (with the first 4 hour collection period of the day beginning at scheduled wake time), or about 8 hours during sleep, will be pooled (the “collection interval”); thus, subjects will have a total of 10 urine collection intervals during each 48-hour period. A study nurse will determine the volume of urine collected during each interval (urine will be transferred to a graduated cylinder) and an aliquot will be assayed for aMT6s. • For each collection interval, the start and end time of the interval will be used to determine the midpoint and duration of the interval. The start time of a given interval is defined as the last void time from the prior 4 hour (or 8 hour) collection interval; the end time of a given interval is defined as the last void time within the collection interval. • The mass of the primary melatonin metabolite (aMT6s) excreted during the interval will be determined as the product of aMT6s concentration and volume of urine. Rate of aMT6s excretion will be determined as the mass of aMT6s excreted divided by the duration of the interval. […] For screening there will be occasions when the 4 different weeks that urine collections are conducted will span a change in the clock time. Therefore, all urine collection times will be automatically translated into local standard time for calculations and then translated back to DST for reporting purposes, if appropriate. • In certain situations, urine collections or their recording will be incomplete. The following procedures will be invoked to address this: • 1. If a subject fails to timestamp a void, no action will be taken if there are multiple voids with timestamps within one interval. • 2. If there is only one void in a collection interval, and the patient cannot recall the time of the void then the entire 48 hour collection period will be excluded from the analysis and the subject will be requested to collect an additional 48 hours of urine after Day 28. It would not be possible to accurately determine to which collection interval the unmarked urine belongs. Consequently, the appropriate assignment of start and stop times to all of the collection intervals would be questionable. • 3. If a void is discarded by the patient but the time of the void is known, duration associated with that void (time of the void minus the time of the previous void) will be subtracted from the total duration associated with that interval. This modified duration will be used to calculate rate of aMT6s excretion. If a discarded sample is either the first or last of the samples in an interval, the midpoint of that interval will be calculated without considering that sample. • 4. If fewer than 4 samples are available for one 48-hour collection session, fitting of the cosine will be compromised (inadequate degrees of freedom). Consequently, acrophase will not be determined if fewer than four samples are available. • For each session, acrophase will be determined by fitting a cosine to the data from that session using unweighted non-linear regression. Fitting will be performed using a non-linear least squares fitting algorithm. The fitting process will estimate phase shift, mesor, and amplitude and their respective standard errors; period of the cosine will be fixed to 24 hours.* • Acrophase will be determined as the phase shift modulus 24 hours. • If acrophase values are available for three or more sessions, tau will be calculated using the following procedure: • 1. Acrophase will be recalculated relative to day 0 (24·start day for each session+acrophase). • 2. […]

Data set [1] in a line: Fluvoxamine co-administration pharmacokinetic study. It is filed as in vivo, human. On the procedure: Twenty-four healthy male or female subjects between the ages of 18 and 55 years of age (inclusive) who were non-smokers with a body mass index (BMI) of ≧18 and ≦35 kg/m2 participated in this open-label, single-sequence study conducted at one site. On day 1, subjects were administered 5.667 mg of tasimelteon.

Data set [2] is described as follows: Effect of smoking on pharmacokinetics. In kind it is in vivo, human. To be noted: for Vd/F: read-out: Vz/F; for half-life: read-out: t½ (converted). The source says: Smokers were defined as those smoking 10 or more cigarettes per day. Non-smokers were defined as those smoking no cigarettes per day.
Another data set in a line: tmax as stated in text. To be noted: in vivo.
The mark [3] stands for this setting: both sexes, human, in vivo, Day 1: 5.667 mg tasimelteon alone.
[4] abbreviates: compared to tasimelteon administered alone.
[5] abbreviates: human, in vivo, Smokers (10 or more cigarettes per day).
[6] abbreviates: Smokers (10 or more cigarettes per day).

MT1R, sequence (P48039 whole entry): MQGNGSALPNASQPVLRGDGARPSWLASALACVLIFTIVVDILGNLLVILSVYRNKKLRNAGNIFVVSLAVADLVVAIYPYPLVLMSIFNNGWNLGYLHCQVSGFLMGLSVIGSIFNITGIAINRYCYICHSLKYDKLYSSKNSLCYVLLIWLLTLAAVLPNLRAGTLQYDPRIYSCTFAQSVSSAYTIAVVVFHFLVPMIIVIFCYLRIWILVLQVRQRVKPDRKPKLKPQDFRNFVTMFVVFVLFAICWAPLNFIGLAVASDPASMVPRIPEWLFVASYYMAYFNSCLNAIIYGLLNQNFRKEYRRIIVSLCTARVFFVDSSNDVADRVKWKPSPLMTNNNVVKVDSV

The Ki is a dissociation constant, usually derived from enzyme kinetics or from competition with a known ligand. Higher therefore signals lower affinity. Take `CCC(=O)NC[C@@H]1C[C@H]1c1cccc2c1CCO2` (relative stereo) [Tasimelteon, trans-N-[[2-(2,3-dihydrobenzofuran-4-yl)cycloprop-1yl]methyl]propanamide]: the Ki on MT1R was 0.3 to 0.4 nM; at MT2R, 0.1 to 0.2 nM. The “Entrained, percent of patients” value in the data set on Non-24 patients (Peak aMT6s <1500 ng/hr) is 41%; in the data set on Non-24 patients (Peak aMT6s <2000 ng/hr), 38%; in the data set on Non-24 patients (Peak aMT6s ≧1500 ng/hr) it was 67%; in the data set with Non-24 patients (Peak aMT6s ≧2000 ng/hr) it was 85%; in the data set on Non-24 patients (Peak aMT6s: All) it was 51%. Moreover, the “Non-entrained, percent of patients” value was 59% in the data set with Non-24 patients (Peak aMT6s <1500 ng/hr); 62% in the data set on Non-24 patients (Peak aMT6s <2000 ng/hr); 33% with Non-24 patients (Peak aMT6s ≧1500 ng/hr); 15% in the data set with Non-24 patients (Peak aMT6s ≧2000 ng/hr); 49% with Non-24 patients (Peak aMT6s: All). Moreover, the AUC(0-inf) was 102 ± 61.5 ng·h/mL in data set [1] (setting [3]); 389 ± 429 ng·h/mL in data set [2] (human, in vivo, Non-Smokers); 205 ± 152 ng·h/mL in data set [2] (setting [5]). For the same compound, the Cmax in data set [1] (setting [3]) came to 68 ± 28.9 ng/mL; in data set [2] (human, in vivo, Non-Smokers), 239 ± 177 ng/mL; in data set [2] (setting [5]) it was 136 ± 59.5 ng/mL. For the same compound, the Tmax in data set [1] (setting [3]) is 30 min; in data set [2] (human, in vivo, Non-Smokers, read-out: Tmax), 30 min; in data set [2] (human, in vivo, Smokers (10 or more cigarettes per day), read-out: Tmax), 45 min; in “tmax as stated in text”, “approximately one-half”. The half-life in data set [1] (both sexes, human, in vivo, Day 1: 5.667 mg tasimelteon alone, read-out: t½ (converted)) was 72 ± 13.2 min; in data set [2] (human, in vivo, Non-Smokers), 70.8 ± 27.6 min; in data set [2] (setting [5]), 59.4 ± 10.8 min. The “increase of AUC0-inf upon co-administration of fluvoxamine” value in data set [1] (setting [4]) was “approximately 7 fold”. In addition, the “increase of Cmax upon co-administration of fluvoxamine” value in data set [1] (setting [4]) is listed as “approximately 2 fold”. In addition, the Vd/F in data set [2] (human, in vivo, Non-Smokers) was determined as 133 ± 83 L; in data set [2] (setting [5]), 189 ± 94.2 L.

For the compound `CCC(=O)NC[C@@H]1CC1c1cccc(O)c1CC(=O)O` (some centres unmarked) [M11], the AUC(0-inf) in data set [1] (setting [3]) came out at 104 ± 30 ng·h/mL.

For `CCC(=O)NCC1CC1c1cccc2c1C(O)CO2` (centres unmarked) [M14], in data set [2] (setting [6]), the “AUC (inf)” value came to 9.45 ± 11.88 h x ng/mL and the Tmax amounted to 45 min.

For `CCC(=O)NCC1CC1c1cccc2c1C(O)CO2` (centres unmarked) [M12], in data set [2] (setting [6]), the “AUC (inf)” value is recorded as 526 ± 193 h x ng/mL and the Tmax was determined as 60 min.

For `CCC(=O)NC[C@@H]1CC1c1cccc(O)c1CCO` (some centres unmarked) [M9], the AUC(0-inf) in data set [1] (setting [3]) is 44.5 ± 17.2 ng·h/mL.
